From USRE39591E1, “6-O-substituted ketolides having antibacterial activity” (Abbott Laboratories, priority 1996, dated 2007)
≈ marks a conversion by molar mass, not a printed value.

System: up to 32 different microorganisms
Test: in vitro antibacterial activity (MIC), agar dilution on Brain Heart Infusion (BHI) agar with Steers replicator
Format: cell-based
Conditions: unit assumed
Experimental: Representative compounds of the present invention were assayed in vitro for antibacterial activity as follows: Twelve petri dishes containing successive aqueous dilutions of the test compound mixed with 10 mL of sterilized Brain Heart Infusion (BHI) agar (Difco 0148-01-5) were prepared. Each plate was inoculated with 1:100 (or 1:10 for slow-growing strains, such as Micrococcus and Streptococcus) dilutions of up to 32 different microorganisms, using a Steers replicator block. The inoculated plates were incubated at 35°-37° C. for 20 to 24 hours. In addition, a control plate, using BHI agar containing no test compound, was prepared and incubated at the beginning and end of each test.
An additional plate containing a compound having known susceptibility patterns for the organisms being tested and belonging to the same antibiotic class as the test compound was also prepared and incubated as a further control, as well as to provide test-to-test comparability. Erythromycin A was used for this purpose.
After incubation, each plate was visually inspected. The minimum inhibitory concentration (MIC) was defined as the lowest concentration of drug yielding no growth, a slight haze, or sparsely isolated colonies on the inoculum spot as compared to the growth control.

[1] = Candida albicans CCH 442 (code TT)
[2] = Enterococcus faecism ATCC 8043 (code II)
[3] = Escherichia coli DC-2 (code SS)
[4] = Escherichia coli JUHL (code QQ)
[5] = Haemophilis influenzae DILL AMP R (code WW)
[6] = Micrococcus luteus ATCC 4698 (code PP)
[7] = Micrococcus luteus ATCC 9341 (code OO)
[8] = Mycobacterium smegmatis ATCC 114 (code UU)
[9] = Nocardia Asteroides ATCC9970 (code VV)
[10] = Staphylococcus aureus 1775 (code GG)
[11] = Staphylococcus aureus A5177 (code BB)
[12] = Staphylococcus aureus A-5278 (code CC)
[13] = Staphylococcus aureus ATCC 6538P (code AA)
[14] = Staphylococcus aureus CMX 553 (code FF)
[15] = Staphylococcus aureus CMX 642A (code DD)
[16] = Staphylococcus aureus NCTC10649M (code EE)
[17] = Staphylococcus epidermidis 3519 (code HH)
[18] = Streptococcus Pneumonia 5649 (code ZZA)
[19] = Streptococcus Pneumonia 5979 (code ZZ)
[20] = Streptococcus Pneumonia ATCC6303 (code XX)
[21] = Streptococcus Pneumonia GYR 1171 (code YY)
[22] = Streptococcus agalactiae CMX 508 (code KK)
[23] = Streptococcus bovis A-5169 (code JJ)
[24] = Streptococcus pyogenes 930 (code MM)
[25] = Streptococcus pyogenes EES61 (code LL)
[26] = Streptococcus pyogenes PIU 2548 (code NN)

| SMILES | MIC [1] [µg/mL] | MIC [2] [µg/mL] | MIC [3] [µg/mL] | MIC [4] [µg/mL] | MIC (Escherichia coli SS (code RR)) [µg/mL] | MIC [5] [µg/mL] | MIC [6] [µg/mL] | MIC [7] [µg/mL] | MIC [8] [µg/mL] | MIC [9] [µg/mL] | MIC [10] [µg/mL] | MIC [11] [µg/mL] | MIC [12] [µg/mL] | MIC [13] [µg/mL] | MIC [14] [µg/mL] | MIC [15] [µg/mL] | MIC [16] [µg/mL] | MIC [17] [µg/mL] | MIC [18] [µg/mL] | MIC [19] [µg/mL] | other results |
| --- | --- | --- | --- | --- | --- | --- | --- | --- | --- | --- | --- | --- | --- | --- | --- | --- | --- | --- | --- | --- | --- |
| C=CCOC1(C)CC(C)C(=O)C(C)C2N(CC=C)C(=O)OC2(C)C(CC)OC(=O)C(C)C(=O)C(C)C1OC1OC(C)CC(N(C)C)C1O (stereo not drawn) [Example 183, Compound of Formula (IX): L is CO, T is N (CH2CH═CH2), R is —CH2CH═CH2] | > 100 | 3.1 | > 100 | > 100 | 25 | > 128 | 25 | 6.2 | > 100 | 1.56 | > 100 | 25 | > 100 | 25 | 25 | 25 | 25 | 25 | 2 | > 128 | MIC [20]: 2 µg/mL; MIC [21]: 2 µg/mL; MIC [22]: 1.56 µg/mL; MIC [23]: 0.78 µg/mL; MIC [24]: > 100 µg/mL; MIC [25]: 1.56 µg/mL; MIC [26]: 3.1 µg/mL |
| CCC1OC(=O)C(C)C(=O)C(C)C(OC2OC(C)CC(N(C)C)C2O)C(C)(OCC=Cc2cnc3ccccc3c2)CC(C)C(=O)C(C)C2N(CC=Cc3cnc4ccccc4c3)C(=O)OC12C (stereo not drawn) [Example 184, Compound of Formula (IX): L is CO, T is T is N (CH2CH═CH-(3-quinolyl)), R is —CH2CH═CH-(3-quinolyl)] | > 100 | 0.2 | > 100 | > 100 | 12.5 | > 128 | 0.78 | 0.39 | 6.2 | 3.1 | > 100 | 1.56 | > 100 | 3.1 | 1.56 | 3.1 | 3.1 | 3.1 | 2 | 32 | MIC [20]: 1 µg/mL; MIC [21]: 0.5 µg/mL; MIC [22]: 0.1 µg/mL; MIC [23]: 0.1 µg/mL; MIC [24]: 25 µg/mL; MIC [25]: 0.1 µg/mL; MIC [26]: 1.56 µg/mL |
| CCC1OC(=O)C(C)C(=O)C(C)C(OC2OC(C)CC(N(C)C)C2O)C(C)(OCC=Cc2cccnc2)CC(C)C(=O)C(C)C2NC(=O)OC12C (stereo not drawn) [Example 185, R is —CH2CH═CH-(3-pyridyl)] | > 100 | 0.05 (≈ 0.0698 µM) | 100 (≈ 140 µM) | 100 (≈ 140 µM) | 0.39 (≈ 0.545 µM) | 1 (≈ 1.4 µM) | 0.1 (≈ 0.14 µM) | 0.01 (≈ 0.014 µM) | 3.1 (≈ 4.33 µM) | 0.1 (≈ 0.14 µM) | > 100 | 0.1 (≈ 0.14 µM) | > 100 | 0.1 (≈ 0.14 µM) | 0.1 (≈ 0.14 µM) | 0.1 (≈ 0.14 µM) | 0.1 (≈ 0.14 µM) | 0.1 (≈ 0.14 µM) | 0.5 (≈ 0.698 µM) | > 128 | MIC [20]: 0.03 µg/mL (≈ 0.0419 µM); MIC [21]: 0.03 µg/mL (≈ 0.0419 µM); MIC [22]: 0.01 µg/mL (≈ 0.014 µM); MIC [23]: ≤ 0.005 µg/mL; MIC [24]: > 100 µg/mL; MIC [25]: 0.01 µg/mL (≈ 0.014 µM); MIC [26]: 0.2 µg/mL (≈ 0.279 µM) |
| CCC1OC(=O)C(C)C(=O)C(C)C(OC2OC(C)CC(N(C)C)C2O)C(C)(OCC=Cc2ccc3ccccc3c2)CC(C)C(=O)C(C)C2NC(=O)OC12C (stereo not drawn) [Example 186, R is —CH2CH═CH-(2-naphthyl)] | > 100 | 0.05 (≈ 0.0654 µM) | > 100 | > 100 | 0.39 (≈ 0.51 µM) | 16 (≈ 20.9 µM) | 0.1 (≈ 0.131 µM) | < 0.005 | 0.2 (≈ 0.261 µM) | 0.1 (≈ 0.131 µM) | > 100 | 0.01 (≈ 0.0131 µM) | > 100 | 0.1 (≈ 0.131 µM) | 0.01 (≈ 0.0131 µM) | 0.1 (≈ 0.131 µM) | 0.1 (≈ 0.131 µM) | 0.1 (≈ 0.131 µM) | 1 (≈ 1.31 µM) | > 128 | MIC [20]: 0.03 µg/mL (≈ 0.0392 µM); MIC [21]: 0.015 µg/mL (≈ 0.0196 µM); MIC [22]: 0.01 µg/mL (≈ 0.0131 µM); MIC [23]: ≤ 0.005 µg/mL; MIC [24]: 3.1 µg/mL (≈ 4.05 µM); MIC [25]: 0.01 µg/mL (≈ 0.0131 µM); MIC [26]: 0.1 µg/mL (≈ 0.131 µM) |
